Earlier results as cited in patent US8178322B2, “Method for producing an L-amino acid or a nucleic acid” (Ajinomoto Co., Inc., priority 2007, dated 2012).
In brackets after ≈: the same amount, converted by molar mass. Like-named read-outs stand apart in the source and are kept apart here.

Tests used:
[1] = not given; remark: listed apart in the source

| Compound | Solubility (20° C.) [mg/mL] | Solubility (40° C.) [mg/mL] | Solubility (20° C.) [1] [mg/mL] | Solubility (40° C.) [1] [mg/mL] |
| --- | --- | --- | --- | --- |
| CC(C)[C@H](N)C(=O)O [L-valine] | 57.5 (≈ 491 mM) | 65 (≈ 555 mM) |  |  |
| N[C@@H](CSSC[C@H](N)C(=O)O)C(=O)O [L-cystine] | 0.09 (≈ 0.375 mM) |  |  |  |
| CC[C@H](C)[C@H](N)C(=O)O [L-isoleucine] |  | 44 (≈ 335 mM) |  |  |
| N[C@@H](Cc1ccccc1)C(=O)O [L-phenylalanine] | 27.4 (≈ 166 mM) | 38 (≈ 230 mM) |  |  |
| Nc1ncnc2c1ncn2[C@@H]1O[C@H](CO)[C@@H](O)[C@H]1O [adenosine] |  |  | 3.0 (≈ 11.2 mM) | 8.3 (≈ 31.1 mM) |
| N[C@@H](Cc1c[nH]cn1)C(=O)O [L-histidine] | 38 (≈ 245 mM) | 58 (≈ 374 mM) |  |  |
| Nc1nc2c(ncn2[C@@H]2O[C@H](CO)[C@@H](O)[C@H]2O)c(=O)[nH]1 [guanosine] |  |  | 0.42 (≈ 1.48 mM) | 1.05 (≈ 3.71 mM) |
| N[C@@H](CS)C(=O)O [L-cysteine] | 160 (≈ 1320 mM) |  |  |  |
| CC(C)C[C@H](N)C(=O)O [L-leucine] | 23.8 (≈ 181 mM) | 26 (≈ 198 mM) |  |  |
| Nc1nc2c(ncn2[C@@H]2O[C@H](COP(=O)(O)O)[C@@H](O)[C@H]2O)c(=O)[nH]1 [guanylic acid, guanosine-5′-monophosphate] |  |  | 206 (≈ 567 mM) | 260 (≈ 716 mM) |
| NC(=O)CC[C@H](N)C(=O)O [L-glutamine] | 37.3 (≈ 255 mM) | 66 (≈ 452 mM) |  |  |
| N[C@@H](Cc1c[nH]c2ccccc12)C(=O)O [L-tryptophan] | 10.6 (≈ 51.9 mM) | 14 (≈ 68.6 mM) |  |  |
| OC[C@H]1O[C@@H](n2cnc3c(O)ncnc32)[C@H](O)[C@@H]1O [inosine] |  |  | 44.4 (≈ 166 mM) | 83.4 (≈ 311 mM) |
